In general, AC50 refers to the concentration giving half of the maximal activity seen. Lower therefore signals activity at low concentration.

Structures are written as SMILES.

The target in test [1] is T1, D(1A) dopamine receptor (Homo sapiens, UniProt P21728).
The target of the next test is Substance-P receptor (Homo sapiens, UniProt P25103).
Test [2] addresses Beta-3 adrenergic receptor (Homo sapiens, UniProt P13945).
For test [3], the target named is T1, D(1A) dopamine receptor. The source holds these as a separate data set.
In a further test the target is T2, B1 bradykinin receptor (Homo sapiens, UniProt P46663).
T2 sequence (P46663 whole entry): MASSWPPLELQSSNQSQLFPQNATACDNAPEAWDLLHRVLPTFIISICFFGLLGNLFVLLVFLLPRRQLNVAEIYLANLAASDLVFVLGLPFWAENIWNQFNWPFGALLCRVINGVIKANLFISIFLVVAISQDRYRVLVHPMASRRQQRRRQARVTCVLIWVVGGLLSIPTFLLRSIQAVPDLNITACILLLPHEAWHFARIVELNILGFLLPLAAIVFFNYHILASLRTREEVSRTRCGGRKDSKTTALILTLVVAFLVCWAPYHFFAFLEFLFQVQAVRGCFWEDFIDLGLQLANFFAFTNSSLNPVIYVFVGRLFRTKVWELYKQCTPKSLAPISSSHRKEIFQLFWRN

Test [4] has as its target T3, 5-hydroxytryptamine receptor 1A (Homo sapiens, UniProt P08908).
T3 sequence (P08908 whole entry): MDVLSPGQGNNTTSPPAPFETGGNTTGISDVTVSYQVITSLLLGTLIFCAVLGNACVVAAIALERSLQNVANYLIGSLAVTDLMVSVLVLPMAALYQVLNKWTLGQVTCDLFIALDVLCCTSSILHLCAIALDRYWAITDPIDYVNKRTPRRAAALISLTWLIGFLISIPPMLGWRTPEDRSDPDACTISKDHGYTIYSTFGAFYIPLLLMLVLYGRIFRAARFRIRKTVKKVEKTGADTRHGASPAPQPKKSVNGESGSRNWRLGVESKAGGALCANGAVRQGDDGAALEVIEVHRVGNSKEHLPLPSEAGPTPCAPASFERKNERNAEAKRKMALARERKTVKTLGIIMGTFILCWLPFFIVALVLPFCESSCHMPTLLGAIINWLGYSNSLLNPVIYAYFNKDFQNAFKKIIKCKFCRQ

Another test concerns the target Glucagon receptor (Homo sapiens, UniProt P47871).
Test [5] concerns the target T4, Gastric inhibitory polypeptide receptor (Homo sapiens, UniProt P48546).
T4 sequence (P48546 whole entry): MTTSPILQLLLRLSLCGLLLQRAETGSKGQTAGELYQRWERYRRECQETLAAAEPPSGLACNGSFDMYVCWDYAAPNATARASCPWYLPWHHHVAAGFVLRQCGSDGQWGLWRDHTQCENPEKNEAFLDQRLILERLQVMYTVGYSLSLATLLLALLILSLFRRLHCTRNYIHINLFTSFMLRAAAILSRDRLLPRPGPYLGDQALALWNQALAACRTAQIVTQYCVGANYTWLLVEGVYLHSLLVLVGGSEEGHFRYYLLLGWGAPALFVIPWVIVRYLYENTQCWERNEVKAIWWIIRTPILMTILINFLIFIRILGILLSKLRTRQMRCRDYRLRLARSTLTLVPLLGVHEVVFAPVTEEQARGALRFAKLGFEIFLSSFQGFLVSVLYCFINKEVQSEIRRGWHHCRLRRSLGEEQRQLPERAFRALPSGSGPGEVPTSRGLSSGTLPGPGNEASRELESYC

For test [6], the target named is T5, Corticotropin-releasing factor receptor 1 (Homo sapiens, UniProt P34998).
T5 sequence (P34998 whole entry): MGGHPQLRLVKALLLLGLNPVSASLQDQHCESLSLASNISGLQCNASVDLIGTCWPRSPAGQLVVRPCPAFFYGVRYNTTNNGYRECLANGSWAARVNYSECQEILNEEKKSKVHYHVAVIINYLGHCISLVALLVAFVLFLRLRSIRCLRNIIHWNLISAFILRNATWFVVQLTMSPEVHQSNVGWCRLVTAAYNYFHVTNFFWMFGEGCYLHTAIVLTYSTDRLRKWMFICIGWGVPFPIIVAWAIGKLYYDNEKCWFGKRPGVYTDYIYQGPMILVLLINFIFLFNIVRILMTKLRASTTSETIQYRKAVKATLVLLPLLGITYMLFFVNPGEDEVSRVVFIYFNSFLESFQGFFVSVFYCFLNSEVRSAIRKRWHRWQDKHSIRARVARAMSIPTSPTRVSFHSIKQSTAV

In test [7] the target is T6, Alpha-1A adrenergic receptor (Homo sapiens, UniProt P35348).
T6 sequence (P35348 whole entry): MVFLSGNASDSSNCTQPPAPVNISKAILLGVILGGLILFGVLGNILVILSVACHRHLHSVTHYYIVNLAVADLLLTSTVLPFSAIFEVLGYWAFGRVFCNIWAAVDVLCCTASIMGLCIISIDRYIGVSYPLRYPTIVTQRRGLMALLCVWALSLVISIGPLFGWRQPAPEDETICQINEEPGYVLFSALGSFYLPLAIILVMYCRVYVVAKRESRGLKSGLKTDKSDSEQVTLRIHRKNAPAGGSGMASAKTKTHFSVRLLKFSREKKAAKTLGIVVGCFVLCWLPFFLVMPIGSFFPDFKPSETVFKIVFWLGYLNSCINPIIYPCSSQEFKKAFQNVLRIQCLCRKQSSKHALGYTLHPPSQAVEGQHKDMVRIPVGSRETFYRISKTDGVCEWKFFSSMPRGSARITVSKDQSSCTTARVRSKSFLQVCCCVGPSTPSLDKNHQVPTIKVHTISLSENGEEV

In a further test the target is T7, D(4) dopamine receptor (Homo sapiens, UniProt P21917).
T7 sequence (P21917 whole entry): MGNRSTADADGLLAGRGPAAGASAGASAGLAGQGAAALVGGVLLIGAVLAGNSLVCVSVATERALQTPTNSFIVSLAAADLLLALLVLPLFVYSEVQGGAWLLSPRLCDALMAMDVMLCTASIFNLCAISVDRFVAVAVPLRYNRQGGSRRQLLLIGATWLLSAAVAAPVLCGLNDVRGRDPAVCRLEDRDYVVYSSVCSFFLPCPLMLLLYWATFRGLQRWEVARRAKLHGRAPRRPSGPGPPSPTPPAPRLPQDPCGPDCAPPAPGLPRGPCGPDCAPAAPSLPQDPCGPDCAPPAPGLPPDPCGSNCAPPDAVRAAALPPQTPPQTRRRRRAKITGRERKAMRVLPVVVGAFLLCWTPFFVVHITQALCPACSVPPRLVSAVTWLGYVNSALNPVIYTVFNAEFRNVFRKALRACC

Test [8] deals with Beta-2 adrenergic receptor (Homo sapiens, UniProt P07550). In kind it is functional, cell-based.
Further: assay procedure not described here.

Sequence of Beta-3 adrenergic receptor (P13945 whole entry): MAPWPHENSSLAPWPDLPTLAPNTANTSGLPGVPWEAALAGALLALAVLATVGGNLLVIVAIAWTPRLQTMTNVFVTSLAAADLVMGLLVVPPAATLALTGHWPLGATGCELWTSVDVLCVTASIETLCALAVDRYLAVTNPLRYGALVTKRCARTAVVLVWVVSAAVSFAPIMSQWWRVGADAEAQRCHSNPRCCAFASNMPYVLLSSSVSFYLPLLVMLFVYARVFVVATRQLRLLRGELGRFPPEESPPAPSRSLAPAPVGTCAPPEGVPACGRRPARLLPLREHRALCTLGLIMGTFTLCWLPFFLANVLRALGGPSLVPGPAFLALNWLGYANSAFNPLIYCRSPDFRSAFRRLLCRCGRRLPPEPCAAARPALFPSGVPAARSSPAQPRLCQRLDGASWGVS
Sequence of Glucagon receptor (P47871 whole entry): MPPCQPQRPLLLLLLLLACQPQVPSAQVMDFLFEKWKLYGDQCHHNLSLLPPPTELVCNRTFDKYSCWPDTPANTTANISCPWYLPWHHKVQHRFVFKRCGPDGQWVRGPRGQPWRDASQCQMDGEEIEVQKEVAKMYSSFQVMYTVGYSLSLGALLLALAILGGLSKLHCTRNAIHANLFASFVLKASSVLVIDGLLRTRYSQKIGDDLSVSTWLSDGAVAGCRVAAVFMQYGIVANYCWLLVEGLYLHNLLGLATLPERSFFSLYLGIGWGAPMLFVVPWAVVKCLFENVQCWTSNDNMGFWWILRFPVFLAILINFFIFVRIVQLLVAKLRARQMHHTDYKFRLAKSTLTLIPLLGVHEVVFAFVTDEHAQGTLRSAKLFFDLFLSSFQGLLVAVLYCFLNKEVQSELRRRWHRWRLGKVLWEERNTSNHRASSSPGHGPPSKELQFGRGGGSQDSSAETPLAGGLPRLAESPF
Sequence of Substance-P receptor (P25103 whole entry): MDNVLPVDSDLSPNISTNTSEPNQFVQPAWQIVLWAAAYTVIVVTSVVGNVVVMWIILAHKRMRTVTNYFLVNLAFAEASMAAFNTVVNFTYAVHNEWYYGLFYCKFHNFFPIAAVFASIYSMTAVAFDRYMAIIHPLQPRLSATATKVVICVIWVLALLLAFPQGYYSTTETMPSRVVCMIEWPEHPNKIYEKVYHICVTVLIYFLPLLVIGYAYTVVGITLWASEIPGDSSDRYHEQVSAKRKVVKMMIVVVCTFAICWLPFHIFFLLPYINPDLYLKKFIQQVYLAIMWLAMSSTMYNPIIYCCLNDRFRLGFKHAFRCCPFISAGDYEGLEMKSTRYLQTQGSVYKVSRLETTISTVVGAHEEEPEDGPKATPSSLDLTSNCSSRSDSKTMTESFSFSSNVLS
T1 sequence (P21728 whole entry): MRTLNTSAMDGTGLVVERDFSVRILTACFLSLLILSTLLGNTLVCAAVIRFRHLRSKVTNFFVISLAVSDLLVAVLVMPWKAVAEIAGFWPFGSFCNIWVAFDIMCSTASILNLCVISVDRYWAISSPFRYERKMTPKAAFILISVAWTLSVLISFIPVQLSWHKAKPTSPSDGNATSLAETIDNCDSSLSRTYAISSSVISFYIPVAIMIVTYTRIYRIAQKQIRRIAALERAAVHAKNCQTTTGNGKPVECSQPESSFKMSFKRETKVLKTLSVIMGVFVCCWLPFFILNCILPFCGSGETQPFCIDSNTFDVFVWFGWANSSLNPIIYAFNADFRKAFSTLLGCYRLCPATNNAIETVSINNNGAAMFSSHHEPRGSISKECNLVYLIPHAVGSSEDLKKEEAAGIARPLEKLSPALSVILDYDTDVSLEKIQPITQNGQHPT
Sequence of Beta-2 adrenergic receptor (P07550 whole entry): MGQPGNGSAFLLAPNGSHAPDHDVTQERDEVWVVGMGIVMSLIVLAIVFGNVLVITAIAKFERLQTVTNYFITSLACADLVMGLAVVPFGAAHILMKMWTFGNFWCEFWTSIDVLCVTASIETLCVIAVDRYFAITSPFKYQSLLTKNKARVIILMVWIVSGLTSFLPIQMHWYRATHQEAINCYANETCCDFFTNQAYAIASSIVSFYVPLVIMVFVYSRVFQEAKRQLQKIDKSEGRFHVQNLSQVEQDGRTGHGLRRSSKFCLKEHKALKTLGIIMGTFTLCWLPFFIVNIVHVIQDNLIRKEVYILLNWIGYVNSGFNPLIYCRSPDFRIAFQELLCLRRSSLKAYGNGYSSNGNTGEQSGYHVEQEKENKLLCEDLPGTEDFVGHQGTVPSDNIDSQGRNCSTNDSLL

For the molecule `CCCCCCCC(=O)N[C@H](CN1CCCC1)[C@H](O)c1ccc2c(c1)OCCO2`, at D(1A) dopamine receptor [1], the AC50 was over 30 µM.
With `C[C@]1(COc2ccc(N3CCC(Oc4ccc(OC(F)(F)F)cc4)CC3)cc2)Cn2cc([N+](=O)[O-])nc2O1`, the AC50 was over 10 µM at Substance-P receptor; over 30 µM in test [2]; over 10 µM at D(1A) dopamine receptor [3]; over 30 µM on B1 bradykinin receptor; over 10 µM in test [4]; over 30 µM on Glucagon receptor. Also, the AC50 in test [5] is over 30 µM; in test [6], over 30 µM; in test [7] it was over 10 µM; at D(4) dopamine receptor, over 10 µM.
Take `CC(=O)OCC[N+](C)(C)C` [ACETYLCHOLINE]: the AC50 at Substance-P receptor is over 10 µM; in test [2] it was over 30 µM; at D(1A) dopamine receptor [3], over 10 µM; on B1 bradykinin receptor it was over 30 µM; in [4], over 10 µM; on Glucagon receptor, over 30 µM. For the same molecule, the AC50 in test [5] is over 30 µM; in test [6], over 30 µM; in test [7], over 10 µM; at D(4) dopamine receptor it was over 10 µM.
Turning to `O=C(Nc1nc(-c2cc(Cl)cs2)c(N2CCN(C3CCCCC3)CC2)s1)c1cnc(N2CCC(C(=O)O)CC2)c(Cl)c1` [AVATROMBOPAG], the AC50 on Substance-P receptor is over 10 µM; on D(1A) dopamine receptor [3], over 10 µM; at B1 bradykinin receptor, over 10 µM; in test [4], over 10 µM; at D(1A) dopamine receptor [1] it was over 30 µM; in test [7], over 10 µM. This molecule also yielded an AC50 at D(4) dopamine receptor of over 10 µM.
Consider `C[C@H]1C[C@H]2[C@@H]3CCC4=CC(=O)C=C[C@]4(C)[C@@]3(Cl)[C@@H](O)C[C@]2(C)[C@@]1(O)C(=O)CO` [BECLOMETHASONE], for which the AC50 at Substance-P receptor is over 10 µM; in [2], over 30 µM; at D(1A) dopamine receptor [3], over 10 µM; on B1 bradykinin receptor it was over 30 µM; in [4], over 10 µM; on Glucagon receptor it was over 30 µM. The AC50 in test [5] is over 30 µM; in [6] it was over 30 µM; in [7], over 10 µM; at D(4) dopamine receptor it was over 10 µM.
Consider `CO[C@@]1(NC(=O)CSCC#N)C(=O)N2C(C(=O)O)=C(CSc3nnnn3C)CS[C@@H]21` [CEFMETAZOLE], for which the AC50 (in [8]; at D(1A) dopamine receptor [1]) was over 30 µM each time.
In the case of `CO/N=C(\C(=O)N[C@@H]1C(=O)N2C(C(=O)[O-])=C(C[n+]3cccc4c3CCC4)CS[C@H]12)c1csc(N)n1` [CEFPIROME], in test [8], the AC50 was over 30 µM.
Same read-out and setting: under `CC[C@H]1OC(=O)[C@H](C)[C@@H](O[C@H]2C[C@@](C)(OC)[C@@H](O)[C@H](C)O2)[C@H](C)[C@@H](O[C@@H]2O[C@H](C)C[C@H](N(C)C)[C@H]2O)[C@](C)(OC)C[C@@H](C)C(=O)[C@H](C)[C@@H](O)[C@]1(C)O` [CLARITHROMYCIN] stands over 30 µM.
For `Oc1c(I)cc(Cl)c2cccnc12` [CLIOQUINOL], the figures for the AC50 (in [8]; on D(1A) dopamine receptor [1]) were over 10 µM and over 30 µM, respectively.
As to `COc1ccc2c(c1)[C@]13CCCC[C@@H]1[C@H](C2)N(C)CC3` [DEXTROMETHORPHAN], the AC50 on Substance-P receptor was 6.94 µM; in test [2], over 30 µM; on D(1A) dopamine receptor [3], over 10 µM; at B1 bradykinin receptor, over 30 µM; in test [4] it was over 10 µM; at Glucagon receptor, over 30 µM. The AC50 is over 30 µM in test [5], over 30 µM in test [6], 5.22 µM in test [7] and over 10 µM at D(4) dopamine receptor.
As to `CCn1cc(C(=O)O)c(=O)c2cc(F)c(N3CCNCC3)nc21` [ENOXACIN], the AC50 at Substance-P receptor was over 10 µM; in test [2], over 30 µM; on D(1A) dopamine receptor [3] it was over 10 µM; on B1 bradykinin receptor it was over 30 µM; in [4], over 10 µM; at Glucagon receptor it was over 30 µM. Also, the AC50 in test [5] was over 30 µM; in [6], over 30 µM; in test [7], over 10 µM; on D(4) dopamine receptor, over 10 µM.
On D(1A) dopamine receptor [1], `CCC(=O)O[C@@H]1CC(=O)O[C@H](C)C/C=C/C=C/[C@H](OC(C)=O)[C@H](C)C[C@H](CC=O)[C@H](O[C@@H]2O[C@H](C)[C@@H](O[C@H]3C[C@@](C)(OC(C)=O)[C@@H](OC(=O)CC)[C@H](C)O3)[C@H](N(C)C)[C@H]2O)[C@H]1OC` [MIOCAMYCIN] gave an AC50 of over 30 µM.
In test [8], `CNC(=O)Oc1ccc2c(c1)[C@]1(C)CCN(C)[C@@H]1N2C` [PHYSOSTIGMINE] returned an AC50 of over 30 µM.
With `C1CNCCN1` [PIPERAZINE], on D(1A) dopamine receptor [1], the AC50 was over 30 µM.
For `COCCCOc1ccnc(C[S+]([O-])c2nc3ccccc3[nH]2)c1C` (stereo not drawn) [RABEPRAZOLE], the AC50 was over 10 µM at Substance-P receptor; over 30 µM in test [2]; over 10 µM on D(1A) dopamine receptor [3]; over 30 µM at B1 bradykinin receptor; over 10 µM in test [4]; over 30 µM on Glucagon receptor. Besides, the AC50 was over 30 µM in test [5], over 30 µM in test [6], 4.98 µM in [7] and over 10 µM at D(4) dopamine receptor.
In the case of `O=C(CCCN1CCC2(CC1)C(=O)NCN2c1ccccc1)c1ccc(F)cc1` [SPIPERONE], the AC50 in test [8] is over 30 µM.
